Assay results published in patent publication US8629084B2, “Iodine-phenyl-substituted cyclic cetoenols” (Bayer CropScience AG, priority 2004, dated 2014).

Assays:
[1] = logP determination by HPLC on reversed-phase column (C18), EEC Directive 79/831 Annex V.A8; format: physicochemical; conditions: for log P: value in preparation example text
Experimental: • The logP values given in the Tables and Preparation Examples above are determined in accordance with EEC Directive 79/831 Annex V.A8 by HPLC (High Performance Liquid Chromatography) on a reversed-phase column (C18). Temperature: 43° C.
The determination is carried out in the acidic range at pH 2.3 using the mobile phases 0.1% aqueous phosphoric acid and acetonitrile; linear gradient from 10% acetonitrile to 95% acetonitrile. […]
Calibration is carried out using unbranched alkan-2-ones (having 3 to 16 carbon atoms) with known logP values (determination of the logP values by the retention times using linear interpolation between two successive alkanones).

[2] = system: cereal; experiment: Herbicidal post-emergence action with use of safeners (Example G): container trials with cereal in a greenhouse, mefenpyr 1 day prior to herbicide application; format: in vivo; conditions: without safener
Experimental: Herbicidal Post-Emergence Action
Seeds of monocotyledonous and dicotyledonous weed and crop plants are placed into sandy loam in wood fiber pots or in plastic pots, covered with soil and cultivated in a greenhouse, during the vegetation period also outdoors outside of the greenhouse, under good growth conditions. Two to three weeks after sowing, the test plants are treated at the one- to three-leaf stage. The test compounds, formulated as wettable powders (WP) or liquid (EC), are, in various dosages at a water application rate of 300 l/ha (converted), with wetting agent (0.2 to 0.3%) added, sprayed onto the plants and the surface of the soil. […]
If it is additionally to be tested as to whether safeners can improve the plant compatibility of test substances in the case of crop plants, the following options are used for applying the safener: • seeds of the crop plants are, before sowing, dressed with the safener substance (the amount of safener stated in percent, based on the weight of the seed) • before the application of the test substances, the crop plants are sprayed with the safener at a certain application rate per hectare (usually 1 day before the application of the test substances) • the safener is applied together with the test substance as a tank mix (the amount of safener is stated in g/ha or as a ratio, based on the herbicide).
By comparing the effect of test substances on crop plants without or with safener treatment, it is possible to assess the effect of the safener substance.
Container Trials with Cereal in a Greenhouse
Mefenpyr 1 day prior to herbicide application

[3] = system: brown plant hopper (Nilaparvata lugens); experiment: Nilaparvata lugens test (hydroponic treatment); format: in vivo; conditions: concentration of 20 ppm
Experimental: Nilaparvata Lugens Test (Hydroponic Treatment)
Solvents: 78 parts by weight of acetone • • 1.5 parts by weight of dimethylformamide
Emulsifier: 0.5 part by weight of alkylaryl polyglycol ether
To produce a suitable preparation of active compound, 1 part by weight of active compound is mixed with the stated amounts of solvents and emulsifier, and the concentrate is diluted with emulsifier-containing water to the desired concentration.
The active compound preparation is pipetted into water. The stated concentration refers to the amount of active compound per volume unit of water (mg/l=ppm). After the desired period of time, the water is infected with the brown plant hopper (Nilaparvata lugens).
After the desired period of time, the effect in % is determined. 100% means that all plant hoppers have been killed; 0% means that none of the plant hoppers have been killed.

[4] = compounds of formula (I-2-b), HPLC reversed-phase C18, 43° C., acidic range pH 2.3, 0.1% aqueous phosphoric acid/acetonitrile
[5] = compounds of formula (I-2-a), HPLC reversed-phase C18, 43° C., acidic range pH 2.3, 0.1% aqueous phosphoric acid/acetonitrile
[6] = summer wheat, 25 g of a.i./ha, 10 days after application
[7] = summer wheat, 50 g of a.i./ha, 10 days after application
[8] = summer wheat, 100 g of a.i./ha, 10 days after application
[9] = HPLC, reversed-phase C18, 43° C., acidic range pH 2.3 (0.1% aqueous phosphoric acid/acetonitrile)
[10] = HPLC, reversed-phase C18, 43° C., acidic range pH 2.3 (0.1% aqueous phosphoric acid/acetonitrile), table of formula (I-2-c)

COC1CCC2(CC1)OC(=O)C(c1cc(C)ccc1I)=C2OC(=O)C(C)(C)C (single isomer, unassigned) [Example I-2-b-7]
logP [1, 4]: 4.24

CCc1cc(I)cc(C)c1C1=C(O)C2(CCC(OC)CC2)OC1=O (stereo not shown) [Example I-2-a-6]
logP [1, 5]: 2.92

COC1CCC2(CC1)OC(=O)C(c1c(C)cc(I)cc1C)=C2OC(=O)C(C)(C)C (single isomer, unassigned) [Example I-2-b-12]
logP [1, 4]: 5.21

CCc1cc(I)cc(C)c1C1=C(OC(=O)C(C)C)C2(CCC(OC)CC2)OC1=O (stereo not shown) [Example I-2-b-10]
logP [1, 4]: 4.79
Summer wheat observed (%) [2, 6]: 15%
Summer wheat observed (%) ([2]; summer wheat, 25 g of a.i./ha, 28 days after application): 25%
Summer wheat observed (%) [2, 7]: 30%
Summer wheat observed (%) ([2]; summer wheat, 50 g of a.i./ha, 28 days after application): 40%
Summer wheat observed (%) [2, 8]: 50%
Summer wheat observed (%) ([2]; summer wheat, 100 g of a.i./ha, 28 days after application): 50%
Summer wheat observed (%) ([2]; summer wheat, 200 g of a.i./ha, 10 days after application): 70%
Summer wheat observed (%) ([2]; summer wheat, 200 g of a.i./ha, 28 days after application): 75%
Summer wheat observed (%) ([2]; the 21st table second column (also headed Summer wheat), 25 g of a.i./ha, 10 days after application): 60%
Summer wheat observed (%) ([2]; the 21st table second column (also headed Summer wheat), 50 g of a.i./ha, 10 days after application): 65%

CCOC(=O)OC1=C(c2c(C)cc(I)cc2CC)C(=O)NC12CCC(OC)CC2 (stereo not shown) [Example I-1-c-1]
Summer wheat observed (%) ([2]; the 20th table, summer wheat, 12.5 g of a.i./ha, 10 days after application): 50%

Cc1ccc(I)c(C2=C(OC(=O)C(C)(C)C)C3(CCCC3)OC2=O)c1 [Example I-2-b-5]
logP [1, 4]: 4.68

COC1CCC2(CC1)OC(=O)C(c1ccccc1I)=C2OC(=O)C(C)C (stereo not shown) [Example I-2-b-3]
logP [1, 4]: 3.6

CC1(C)OC(=O)C(c2ccccc2I)=C1O [Example I-2-a-1]
log P [1, 9]: 1.80

CC(C)(C)C(=O)OC1=C(c2ccccc2I)C(=O)OC1(C)C [Example I-2-b-4]
logP [1, 4]: 3.87

COC1CCC2(CC1)OC(=O)C(c1c(C)cc(I)cc1C)=C2OC(=O)C(C)(C)C (single isomer, unassigned) [Example I-2-b-13]
logP [1, 4]: 4.9

CCc1cc(I)cc(C)c1C1=C(O)C2(CCCC2)OC1=O [I-2-a-8]
logP [1, 5]: 3.00

COC1CCC2(CC1)OC(=O)C(c1c(C)cc(I)cc1C)=C2O (stereo not shown) [Example I-2-a-9]
logP [1, 5]: 2.94

Cc1ccc(I)c(C2=C(O)C3(CCCC3)OC2=O)c1 [I-2-a-3]
logP [1, 5]: 2.51

CC(C)OC(=O)OC1=C(c2ccccc2I)C(=O)OC1(C)C [Example I-2-c-1]
log P [1, 9]: 3.47

CCc1cc(I)cc(C)c1C1=C(OC(=O)C(C)C)C2(CCOCC2)OC1=O [Example I-2-b-9]
logP [1, 4]: 4.42

CCc1cc(I)cc(C)c1C1=C(OC(=O)OC(C)C)C2(CCC(OC)CC2)OC1=O (stereo not shown) [I-2-c-4]
logP [1, 10]: 4.77

CCc1cc(I)cc(C)c1C1=C(O)C2(CCOCC2)OC1=O [Example I-2-a-5]
logP [1, 5]: 2.63

CCc1cc(I)cc(C)c1C1=C(OC(=O)OC(C)C)C2(CCOCC2)OC1=O [I-2-c-5]
logP [1, 10]: 4.41

COC1CCC2(CC1)OC(=O)C(c1ccccc1I)=C2OC(=O)C(C)(C)C (stereo not shown) [Example I-2-b-2]
logP [1, 4]: 3.95

CC(C)C(=O)OC1=C(c2ccccc2I)C(=O)OC1(C)C [Example I-2-b-1]
log P [1, 9]: 3.53

Cc1cc(I)cc(C)c1C1=C(OC(=O)C(C)(C)C)C2(CCCC2)OC1=O [Example I-2-b-11]
logP [1, 4]: 5.26

Cc1cc(C)c(C2=C(O)C3(CCC(C)CC3)NC2=O)c(I)c1 (stereo not shown) [Example I-1-a-3]
Summer wheat observed (%) ([2]; summer wheat, 12.5 g of a.i./ha, 10 days after application): 10%
Summer wheat observed (%) [2, 6]: 20%
Summer wheat observed (%) [2, 7]: 30%
Summer wheat observed (%) [2, 8]: 40%

COC1CCC2(CC1)OC(=O)C(c1cc(C)ccc1I)=C2O (stereo not shown) [Example I-2-a-4]
logP [1, 5]: 2.19

CCc1cc(I)cc(C)c1C1=C(OC(=O)OC(C)C)C(C)(C)OC1=O [I-2-c-3]
logP [1, 10]: 4.66

COC1CCC2(CC1)OC(=O)C(c1ccccc1I)=C2O (stereo not shown) [Example I-2-a-2]
logP [1, 5]: 1.92
efficacy (plant hoppers killed) [3]: ≥ 80%

CCc1cc(I)cc(C)c1C1=C(O)C(C)(C)OC1=O [I-2-a-7]
logP [1, 5]: 2.81

COC1CCC2(CC1)OC(=O)C(c1cc(C)ccc1I)=C2OC(=O)C(C)(C)C (single isomer, unassigned) [Example I-2-b-6]
logP [1, 4]: 4.57

COC1CCC2(CC1)OC(=O)C(c1ccccc1I)=C2OC(=O)OC(C)C (stereo not shown) [I-2-c-2]
logP [1, 10]: 3.54

CCc1cc(I)cc(C)c1C1=C(OC(=O)C(C)C)C(C)(C)OC1=O [I-2-b-8]
logP [1, 4]: 4.72
